# From ChEMBL document CHEMBL5726876, “NHE3-binding compounds and methods for inhibiting phosphate transport” (2019)
# “And” between values parts separate entries of the source, which are not always exact repeats. Identical values can stand only once.
# Assay: Cell-based activity under Prompt Conditions: Cell-based activity under Prompt Conditions. Rat or human NHE3-mediated Na+-dependent H+ antiport was measured using a modification of the pH sensitive dye method originally reported by Paradiso (PNAS USA. 81:7436-7440, 1984). Opossum kidney (OK) cells were obtained from the ATCC and propagated per their instructions. The rat NHE3 gene (GenBank M85300) or the human NHE3 gene (GenBank NM_004174.1) was introduced into OK cells via electroporation, and cells were seeded into 96 well plates and grown overnight. Medium was aspirated from the wells, cells were washed twice with NaCl-HEPES buffer (100 mM NaCl, 50 mM HEPES, 10 mM glucose, 5 mM KCl, 2 mM CaCl2, 1 mM MgCl2, pH 7.4), then incubated for 30 min at room temperature with NH4Cl-HEPES buffer (20 mM NH4Cl, 80 mM NaCl, 50 mM HEPES, 5 mM KCl, 2 mM CaCl2, 1 mM MgCl2, pH 7.4) containing 5 μM bis(acetoxymethyl) 3,3′-(3′,6′-bis(acetoxymethoxy)-5-((acetoxymethoxy)carbonyl)-3-oxo-3H-spiro[isobenzofuran-1,9′-xanthene]-2′,7′-diyl)dipropanoate (BCECF-AM).Cells were washed twice with Ammonium free, Na+-free HEPES (100 mM choline, 50 mM HEPES, 10 mM glucose, 5 mM KCl, 2 mM CaCl2, 1 mM MgCl2, pH 7.4) and incubated in the same buffer for 10 minutes at room temperature to lower intracellular pH. […] Initial rates were plotted as the average 2 or more replicates, and pIC50 values were estimated using GraphPad Prism.
row,Structure (SMILES),IC50
1,NCCOCCOCCNS(=O)(=O)c1ccc(O[C@H]2c3ccccc3C[C@@H]2N2CCCCC2)cc1,447 nM
2,CCNC(=O)CCOCCOCCOCCOCCOCCC(=O)NCCOCCOCCOCCN1CCN(c2ccc(-c3nc(NC(=N)N)nc4ccc(Cl)cc34)cc2)CC1,20.9 nM
3,CN1Cc2c(Cl)cc(Cl)cc2[C@H](c2cccc(S(=O)(=O)NCCOCCOCCOCCNC(=O)CN(CC(=O)NCCOCCOCCOCCNS(=O)(=O)c3cccc([C@@H]4CN(C)Cc5c(Cl)cc(Cl)cc54)c3)[C@@H]3CCCC[C@H]3N(CC(=O)NCCOCCOCCOCCNS(=O)(=O)c3cccc([C@@H]4CN(C)Cc5c(Cl)cc(Cl)cc54)c3)CC(=O)NCCOCCOCCOCNS(=O)(=O)c3cccc([C@@H]4CN(C)Cc5c(Cl)cc(Cl)cc54)c3)c2)C1,316 nM
4,CN(CC(=O)NCCOCCOCCNS(=O)(=O)c1ccc(O[C@H]2c3ccccc3C[C@@H]2N2CCCCC2)cc1)CC(=O)NCCOCCOCCNS(=O)(=O)c1ccc(O[C@H]2c3ccccc3C[C@@H]2N2CCCCC2)cc1,35.5 nM
5,CCOCCOCCC(=O)N(CCNC(=O)NCCOCCOCCNS(=O)(=O)c1cccc([C@@H]2CN(C)Cc3c(Cl)cc(Cl)cc32)c1)CCNC(=O)NCCOCCOCCNS(=O)(=O)c1cccc([C@@H]2CN(C)Cc3c(Cl)cc(Cl)cc32)c1,158 nM
6,C[C@@H](O)[C@H](NC(=O)NC(CCC(=O)NCCOCCOCCNS(=O)(=O)c1cccc([C@@H]2CN(C)Cc3c(Cl)cc(Cl)cc32)c1)(CCC(=O)NCCOCCOCCNS(=O)(=O)c1cccc([C@@H]2CN(C)Cc3c(Cl)cc(Cl)cc32)c1)CCC(=O)NCCOCCOCCNS(=O)(=O)c1cccc([C@@H]2CN(C)Cc3c(Cl)cc(Cl)cc32)c1)C(N)=O,63.1 nM
7,CCN(CCOCCOCCNC(=O)NCCCN(CCCNC(=O)NCCOCCOCCN(CC)S(=O)(=O)c1cccc([C@@H]2CN(C)Cc3c(Cl)cc(Cl)cc32)c1)CCCNC(=O)NCCOCCOCCN(CC)S(=O)(=O)c1cccc([C@@H]2CN(C)Cc3c(Cl)cc(Cl)cc32)c1)S(=O)(=O)c1cccc([C@@H]2CN(C)Cc3c(Cl)cc(Cl)cc32)c1,1000 nM
8,CN1Cc2c(Cl)cc(Cl)cc2[C@H](c2cccc(S(=O)(=O)NCCOCCOCCNC(=O)CCC(CCC(=O)NCCOCCOCCNS(=O)(=O)c3cccc([C@@H]4CN(C)Cc5c(Cl)cc(Cl)cc54)c3)(CCC(=O)NCCOCCOCCNS(=O)(=O)c3cccc([C@@H]4CN(C)Cc5c(Cl)cc(Cl)cc54)c3)NC(=O)Cn3ccnc3)c2)C1,158 nM
9,CC(C)CCC[C@@H](C)[C@H]1CC[C@H]2[C@@H]3CC=C4C[C@@H](OC(=O)NCCOCCOCCNC(=O)N(CCNC(=O)NCCOCCOCCNS(=O)(=O)c5cccc([C@@H]6CN(C)Cc7c(Cl)cc(Cl)cc76)c5)CCNC(=O)NCCOCCOCCNS(=O)(=O)c5cccc([C@@H]6CN(C)Cc7c(Cl)cc(Cl)cc76)c5)CC[C@]4(C)[C@H]3CC[C@]12C,< 10000 nM
10,CN1Cc2c(Cl)cc(Cl)cc2[C@H](c2cccc(S(=O)(=O)NCCOCCOCCNC(=O)NCCCC(N)(CCCNC(=O)NCCOCCOCCNS(=O)(=O)c3cccc([C@@H]4CN(C)Cc5c(Cl)cc(Cl)cc54)c3)CCCNC(=O)NCCOCCOCCNS(=O)(=O)c3cccc([C@@H]4CN(C)Cc5c(Cl)cc(Cl)cc54)c3)c2)C1,100 nM
11,CN1Cc2c(Cl)cc(Cl)cc2C(c2cccc(S(N)(=O)=O)c2)C1 (configuration not stated),251 nM
12,CNC(=O)NC(CCC(=O)NCCOCCOCCNS(=O)(=O)c1cccc([C@@H]2CN(C)Cc3c(Cl)cc(Cl)cc32)c1)(CCC(=O)NCCOCCOCCNS(=O)(=O)c1cccc([C@@H]2CN(C)Cc3c(Cl)cc(Cl)cc32)c1)CCC(=O)NCCOCCOCCNS(=O)(=O)c1cccc([C@@H]2CN(C)Cc3c(Cl)cc(Cl)cc32)c1,794 nM
13,NCCOCCOCCOCCN1CCN(c2ccc(-c3nc(N=C(N)N)nc4ccc(Cl)cc34)cc2)CC1,56.2 nM and 126 nM
14,CN1Cc2c(Cl)cc(Cl)cc2[C@H](c2cccc(S(=O)(=O)NCCOCCOCCOCCNC(=O)CN3CCN(c4nc(N5CCN(CC(=O)NCCOCCOCCOCCNS(=O)(=O)c6cccc([C@@H]7CN(C)Cc8c(Cl)cc(Cl)cc87)c6)CC5)nc(N5CCN(CC(=O)NCCOCCOCCOCCNS(=O)(=O)c6cccc([C@@H]7CN(C)Cc8c(Cl)cc(Cl)cc87)c6)CC5)n4)CC3)c2)C1,251 nM
15,CN(C)[C@H]1Cc2ccc(F)cc2[C@@H]1Oc1ccc(S(=O)(=O)NCCOCCOCCNC(=O)NCCCCNC(=O)NCCOCCOCCNS(=O)(=O)c2ccc(O[C@H]3c4cc(F)ccc4C[C@@H]3N(C)C)cc2)cc1,< 10000 nM
16,CN(C)[C@H]1Cc2c(F)cc(Cl)cc2[C@@H]1Oc1ccc(S(=O)(=O)NCCOCCOCCNC(=O)NCCCCNC(=O)NCCOCCOCCNS(=O)(=O)c2ccc(O[C@H]3c4cc(Cl)cc(F)c4C[C@@H]3N(C)C)cc2)cc1,< 10000 nM
17,CCCCCCCCCCC(=O)NC(CCC(=O)NCCOCCOCCNS(=O)(=O)c1cccc([C@@H]2CN(C)Cc3c(Cl)cc(Cl)cc32)c1)(CCC(=O)NCCOCCOCCNS(=O)(=O)c1cccc([C@@H]2CN(C)Cc3c(Cl)cc(Cl)cc32)c1)CCC(=O)NCCOCCOCCNS(=O)(=O)c1cccc([C@@H]2CN(C)Cc3c(Cl)cc(Cl)cc32)c1,< 10000 nM
18,O=C(NCCOCCOCCNS(=O)(=O)c1ccc(O[C@H]2c3ccccc3C[C@@H]2N2CCCCC2)cc1)c1cccc(C(=O)NCCOCCOCCNS(=O)(=O)c2ccc(O[C@H]3c4ccccc4C[C@@H]3N3CCCCC3)cc2)c1,< 10000 nM
19,CC(O)C(CCC(=O)NCCOCCOCCNS(=O)(=O)c1cccc([C@@H]2CN(C)Cc3c(Cl)cc(Cl)cc32)c1)(CCC(=O)NCCOCCOCCNS(=O)(=O)c1cccc([C@@H]2CN(C)Cc3c(Cl)cc(Cl)cc32)c1)CCC(=O)NCCOCCOCCNS(=O)(=O)c1cccc([C@@H]2CN(C)Cc3c(Cl)cc(Cl)cc32)c1 (some centres not stated),25.1 nM

row,Structure (SMILES),IC50
1,CCCCCCCCCCC(=O)NCCOCCOCCOCCNS(=O)(=O)c1cccc([C@@H]2CN(C)Cc3c(Cl)cc(Cl)cc32)c1,< 10000 nM
2,CN1Cc2c(Cl)cc(Cl)cc2[C@H](c2cccc(S(=O)(=O)NCCOCCOCCNC(=O)CC(O)(CC(=O)NCCOCCOCCNS(=O)(=O)c3cccc([C@@H]4CN(C)Cc5c(Cl)cc(Cl)cc54)c3)C(=O)NCCOCCOCCNS(=O)(=O)c3cccc([C@@H]4CN(C)Cc5c(Cl)cc(Cl)cc54)c3)c2)C1,1000 nM
3,C/C(=C\c1cc(F)c(Oc2ccc(S(=O)(=O)NCCOCCOCCOCCNC(=O)CN(CCN(CC(=O)O)CC(=O)NCCOCCOCCOCCNS(=O)(=O)c3ccc(Oc4c(F)cc(/C=C(\C)C(=O)N=C(N)N)cc4F)cc3)CC(=O)O)cc2)c(F)c1)C(=O)N=C(N)N,31.6 nM
4,C=CC(=O)NCCOCCOCCOCCNS(=O)(=O)c1cccc([C@@H]2CN(C)Cc3c(Cl)cc(Cl)cc32)c1,200 nM
5,CN(C)[C@H]1Cc2c(Cl)cc(Cl)cc2[C@@H]1Oc1ccc(S(=O)(=O)NCCOCCOCCNC(=O)CCC(C)(N)CCC(=O)NCCOCCOCCNS(=O)(=O)c2ccc(O[C@H]3c4cc(Cl)cc(Cl)c4C[C@@H]3N(C)C)cc2)cc1,2.51 nM
6,CN1Cc2c(Cl)cc(Cl)cc2[C@H](c2cccc(S(=O)(=O)NCCOCCOCCNC(=O)CCC(CCC(=O)NCCOCCOCCNS(=O)(=O)c3cccc([C@@H]4CN(C)Cc5c(Cl)cc(Cl)cc54)c3)(CCC(=O)NCCOCCOCCNS(=O)(=O)c3cccc([C@@H]4CN(C)Cc5c(Cl)cc(Cl)cc54)c3)NC(=O)CCC(=O)O)c2)C1,31.6 nM
7,CC(=O)C(CCC(=O)NCCOCCOCCNS(=O)(=O)c1cccc([C@@H]2CN(C)Cc3c(Cl)cc(Cl)cc32)c1)(CCC(=O)NCCOCCOCCNS(=O)(=O)c1cccc([C@@H]2CN(C)Cc3c(Cl)cc(Cl)cc32)c1)CCC(=O)NCCOCCOCCNS(=O)(=O)c1cccc([C@@H]2CN(C)Cc3c(Cl)cc(Cl)cc32)c1,316 nM
8,CN(C)[C@H]1Cc2c(Cl)cc(Cl)cc2[C@@H]1Oc1ccc(S(=O)(=O)NCCOCCOCCNC(=O)COCC(=O)NCCOCCOCCNS(=O)(=O)c2ccc(O[C@H]3c4cc(Cl)cc(Cl)c4C[C@@H]3N(C)C)cc2)cc1,7.94 nM
9,CN(CC(=O)O)CC(=O)NC(CCC(=O)NCCOCCOCCNS(=O)(=O)c1cccc([C@@H]2CN(C)Cc3c(Cl)cc(Cl)cc32)c1)(CCC(=O)NCCOCCOCCNS(=O)(=O)c1cccc([C@@H]2CN(C)Cc3c(Cl)cc(Cl)cc32)c1)CCC(=O)NCCOCCOCCNS(=O)(=O)c1cccc([C@@H]2CN(C)Cc3c(Cl)cc(Cl)cc32)c1,50.1 nM
10,NC(N)=Nc1nc(-c2ccc(N3CCN(CCOCCOCCNC(=O)[C@H](O)[C@@H](O)C(=O)NCCOCCOCCN4CCN(c5ccc(-c6nc(N=C(N)N)nc7ccc(Cl)cc67)cc5)CC4)CC3)cc2)c2cc(Cl)ccc2n1,79.4 nM
11,CNC(=O)CN(CCN(CC(=O)O)CC(=O)NCCOCCOCCNC(=O)NCCOCCOCCOCCOc1cccc(-c2nc(NC(=N)N)nc3ccc(Cl)cc23)c1)CC(=O)O,20 nM
12,CN1Cc2c(Cl)cc(Cl)cc2[C@H](c2cccc(S(=O)(=O)NCCOCCOCCNC(=O)Nc3ccc(NC(=O)NCCOCCOCCNS(=O)(=O)c4cccc([C@@H]5CN(C)Cc6c(Cl)cc(Cl)cc65)c4)cc3)c2)C1,2.51 nM
13,COCCNS(=O)(=O)c1cccc(C2CN(C)Cc3c(Cl)cc(Cl)cc32)c1 (configuration not stated),200 nM
14,COCCOCCOCCOCCC(=O)NCCOCCOCCOCCN1CCN(c2cccc(-c3nc(NC(=N)N)nc4ccc(Cl)cc34)c2)CC1,50.1 nM
15,CCOCCOCCOCCNC(=O)CN(C)CC(=O)NCCOCCOCCOCCNS(=O)(=O)c1ccc(O[C@H]2c3ccccc3C[C@@H]2N2CCCCC2)cc1,44.7 nM
16,CCOCCOCCOCCOCCOCCC(=O)N(CCNC(=O)NCCOCCOCCNS(=O)(=O)c1cccc([C@@H]2CN(C)Cc3c(Cl)cc(Cl)cc32)c1)CCNC(=O)NCCOCCOCCNS(=O)(=O)c1cccc([C@@H]2CN(C)Cc3c(Cl)cc(Cl)cc32)c1,251 nM
17,CN1Cc2c(Cl)cc(Cl)cc2[C@H](c2cccc(S(=O)(=O)NCCOCCOCCNC(=O)CCC(CCC(=O)NCCOCCOCCNS(=O)(=O)c3cccc([C@@H]4CN(C)Cc5c(Cl)cc(Cl)cc54)c3)(CCC(=O)NCCOCCOCCNS(=O)(=O)c3cccc([C@@H]4CCN(C)c5c(Cl)cc(Cl)cc54)c3)NC(=O)[C@H]3CCCC[C@@H]3C(=O)O)c2)C1,126 nM
18,N=C(N)Nc1nc(-c2ccc(OCCOCCOCCOCCN)cc2)c2cc(Cl)ccc2n1,31.6 nM
